The subject of data set [1] is herpes simplex virus type 2. In words: Genital herpes infection in female guinea pigs, suppression of lesion development (intravaginal agarose gel treatment). In kind it is in vivo. The note with it: for animals with lesions: 5% vidarabine formulation in 0.8% agarose gel. Here is the method: The antiviral efficacy of these compounds in the treatment of genital infections in female guinea pigs was determined, the infecting virus being herpes simplex virus […]. The in vivo efficacy was measured in terms of the effect of these compounds in suppressing lesion development induced by the infecting virus. The incidence of lesions for virus-infected animals treated with the test compound was measured and compared with the results obtained for virus-infected control animals treated with placebo, or with the results obtained for untreated virus-infected animals. In the control group of animals small lesions usually appeared 3 to 4 days following infection, the virus-induced lesions reaching a maximum severity around 7 days postinfection this peak being followed by scab formation and then healing. In each case the test animals were infected by intravaginal inoculation with the herpes simplex virus type 2 in 0.1 ml of cell culture medium. 0.1 ml of a 0.8% agarose gel containing the test compound at the stated concentration was then administered intravaginally, treatment commencing (unless otherwise stated) 3 hours postinfection and the test compound being administered 3 times daily for 7 days. […] For the results given in Table 2, drug administration was commenced 6 hours postinfection and the test compound administered three times daily for 5 days.

For data set [2] the following is noted: i.p.
Data set [3] can be described thus: Solubility in water at 37°C. In kind it is physicochemical. The note with it: at 37°C in water.

In brackets after ≈: the same amount, converted by molar mass.

Take `Nc1ncnc2c1ncn2[C@@H]1O[C@H](CO)[C@@H](O)[C@@H]1O` [vidarabine, 9-(β-D-arabinofuranosyl)-adenine]: the animals with lesions is on record as 50% in data set [1] (day 4 postinfection) and 80% in data set [1] (day 7 postinfection).

As a reminder, the solubility is how much of the substance goes into solution per volume. Read a high solubility as much dissolved substance. In the case of `Nc1ncnc2c1ncn2[C@@H]1C[C@H](CO)[C@@H](O)[C@@H]1O` (racemic) [cyclaradine, 9 - [2α,3β-dihydroxy - 4α - (hydroxymethyl)cyclopent - 1 a - yl] - adenine], the lethality entry in data set [2] (dose of 900 mg/kg) is “not lethal”. Further, the “test animals had lesions” value in data set [1] (day 7 postinfection, concentration 3%) worked out at 100%; in data set [1] (day 7 postinfection, concentration 10%), 100%. In data set [3], this molecule showed a solubility of 1 mg/mL (≈ 3.77 mM).

In the case of `COCC(=O)OC[C@H]1C[C@@H](n2cnc3c(N)ncnc32)[C@@H](O)[C@@H]1O` (racemic) [Compound B, 9-[2α,3β-dihydroxy-4α(methoxyacetoxymethyl)cyclopent-1 α-yl]adenine], in data set [2] (highest dose tested of 750 mg/kg), the signs of toxicity result was “no signs of toxicity at all”. For the same molecule, the “animals developed virus-induced lesions” value in data set [1] (administration commenced 6 hours postinfection, three times daily for 5 days, controls 60-90%) is 33%. In data set [3], this molecule registered a solubility of 75 mg/mL (≈ 222 mM).

For `COCC(=O)OC[C@H]1O[C@@H](n2cnc3c(N)ncnc32)[C@@H](O)[C@@H]1O` [Compound A, 9-s-D-Arabinofuranosyladenine-5'-methoxyacetate], the lesion formation entry in data set [1] (concentration of 15% in 0.8% agarose gel, intravaginal, start 3 hours postinfection, 3 times daily for 7 days) is on record as “completely suppressed lesion formation”.
